Laboratory results from patent US9868748B2, “Thiazolopyrrolidine inhibitors of ROR- γ” (Vitae Pharmaceuticals, Inc., priority 2013, dated 2018).
Read-outs that look alike come from different tables or passages of the source.

Tests used:
[1] = target: recombinant RORγ Ligand Binding Domain (LBD) protein (Homo sapiens (Human), UniProt P51449); test: Radio-Ligand RORγ Binding Assay (Assay 1); conditions: competition with 25-hydroxy [26,27-3H]-cholesterol, SPA, read-out: RORγ Binding Ki Range*
Summary of the method: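 Recombinant human RORγ ligand binding domain (6×His-GST fusion, 24 nM stock) competed with tritiated 25-hydroxycholesterol (8.6 nM stock) in HEPES buffer pH 7.4 with detergents and DTT; poly-Lys YSi SPA beads, room temperature, tritium SPA signal. Four-parameter IC50 from semi-log dilutions, normalised to DMSO and 10 μM T0901317, then Ki via KD equation.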

[2] = target: full-length RORγt in Jurkat cells (Homo sapiens (Human), UniProt P51449); test: RORγt 5xRORE Assay in Jurkat Cells (Assay 2); type: cell-based; conditions: Nanoluc luciferase reporter, 16-18 hrs
Summary of the method: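 Inverse agonist activity was read as NanoGlo luminescence from conditioned medium after 16–18 h compound exposure (37 °C, 0.1% DMSO final). The cells were Jurkat, transiently transfected with RORγt and a secNluc reporter carrying five RORE repeats, seeded 80,000 per well in delipidated-serum RPMI.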

[3] = Table 9, read-out: RORγt5X IC50 Range*
[4] = Table 8, read-out: RORγt5X IC50 Range*

full-length RORγt in Jurkat cells, sequence (P51449 other isoform, or with tags, fused parts or gaps): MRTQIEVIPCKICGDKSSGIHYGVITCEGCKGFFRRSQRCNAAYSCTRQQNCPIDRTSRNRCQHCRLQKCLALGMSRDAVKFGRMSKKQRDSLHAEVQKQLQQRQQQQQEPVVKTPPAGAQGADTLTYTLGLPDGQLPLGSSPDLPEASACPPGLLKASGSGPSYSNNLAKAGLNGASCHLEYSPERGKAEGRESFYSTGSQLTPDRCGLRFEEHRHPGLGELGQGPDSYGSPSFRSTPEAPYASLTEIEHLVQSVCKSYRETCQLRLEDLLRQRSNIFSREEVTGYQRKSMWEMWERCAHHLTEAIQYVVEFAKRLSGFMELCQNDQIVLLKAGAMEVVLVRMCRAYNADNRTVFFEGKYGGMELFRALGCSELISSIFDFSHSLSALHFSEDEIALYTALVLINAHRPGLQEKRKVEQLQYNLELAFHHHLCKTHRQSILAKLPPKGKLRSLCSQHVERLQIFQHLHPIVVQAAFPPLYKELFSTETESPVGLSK
recombinant RORγ Ligand Binding Domain (LBD) protein, sequence (P51449 269-508): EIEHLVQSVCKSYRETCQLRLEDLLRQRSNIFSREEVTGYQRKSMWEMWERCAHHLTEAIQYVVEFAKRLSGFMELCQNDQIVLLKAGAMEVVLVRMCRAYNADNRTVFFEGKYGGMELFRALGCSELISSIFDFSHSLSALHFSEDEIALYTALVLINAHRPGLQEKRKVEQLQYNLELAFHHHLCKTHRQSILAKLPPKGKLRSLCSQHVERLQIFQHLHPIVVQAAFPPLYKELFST

Compound	Ki ([1]; Table 9)	IC50 [2, 3]	Ki ([1]; Table 8)	IC50 [2, 4]
CCS(=O)(=O)c1ccc(CC(=O)Nc2nc3c(s2)CN(CC2CCOCC2)[C@H]3C(C)C)cc1	< 0.1 µM	> 1 µM		
CC(C)[C@H]1c2nc(NC(=O)Cc3ccc(S(C)(=O)=O)cc3)sc2CN1[C@H](C)c1ccc(C#N)c(F)c1 [I-B11]			< 0.1 µM	< 0.1 µM
CCS(=O)(=O)c1ccc(CC(=O)Nc2nc3c(s2)CN(Cc2ccc(C(=O)O)cc2)[C@H]3C(C)C)cc1	< 0.1 µM	0.1 to 1 µM		
CCS(=O)(=O)c1ccc(CC(=O)Nc2nc3c(s2)CN([C@H](C)Cc2ccc(F)cc2)[C@@H]3C(C)C)cc1	< 0.1 µM	> 1 µM		
CC(C)[C@H]1c2nc(NC(=O)Cc3ccc(S(C)(=O)=O)cc3)sc2CN1[C@@H](C)c1ccc(Cl)cn1 (single isomer, unassigned)	< 0.1 µM	0.1 to 1 µM		
CCS(=O)(=O)c1ccc(CNC(=O)c2nc3c(s2)CN(CC2CN(CC(F)(F)F)CCO2)[C@H]3C(C)C)cc1 (stereo partly shown)	< 0.1 µM	> 1 µM		
CC(C)[C@@H]1c2nc(NC(=O)Cc3ccc(S(C)(=O)=O)cc3)sc2CN1Cc1ccc(OC(F)F)cc1F	0.1 to 1 µM	0.1 to 1 µM		
CC(C)[C@H]1c2nc(NC(=O)Cc3ccc(C#N)cc3)sc2CN1Cc1ccc(C#N)c(OC(F)F)c1	< 0.1 µM	0.1 to 1 µM		
CCS(=O)(=O)c1ccc(CC(=O)Nc2nc3c(s2)CN(Cc2cnc(C(F)(F)F)nc2)[C@H]3C(C)C)cc1 [I-A58]			< 0.1 µM	< 0.1 µM
CCS(=O)(=O)c1ccc(CC(=O)Nc2nc3c(s2)CN(C[C@H]2CN(C(=O)OC(C)(C)C)CCO2)[C@H]3C(C)C)cc1 [I-A41]			< 0.1 µM	< 0.1 µM
CCS(=O)(=O)c1ccc(CC(=O)Nc2nc3c(s2)CN(Cc2ccc(C(F)(F)F)cc2)[C@H]3C(C)C)cc1 [I-A2, (S)-2-(4-(ethylsulfonyl)phenyl)-N-(4-isopropyl-5-(4-(trifluoromethyl)benzyl)-5,6-dihydro-4H-pyrrolo[3,4-d]thiazol-2-yl)acetamide]			< 0.1 µM	< 0.1 µM
CCS(=O)(=O)c1ccc(CC(=O)Nc2nc3c(s2)CN(CC2CCn4c(C)nnc4C2)[C@H]3C(C)C)cc1 (stereo partly shown)	0.1 to 1 µM	> 1 µM		
CCS(=O)(=O)c1ccc(CC(=O)Nc2nc3c(s2)CN(Cc2cc(OC(F)F)ccc2F)[C@@H]3C(C)C)cc1	< 0.1 µM	> 1 µM		
CCS(=O)(=O)c1ccc(CC(=O)Nc2nc3c(s2)CN(Cc2ccc(C(F)(F)F)cc2)[C@H]3C(C)C)nc1 [I-C4]			< 0.1 µM	< 0.1 µM
CCS(=O)(=O)c1ccc(CC(=O)Nc2nc3c(s2)CN(C[C@H]2CC[C@@H](C(F)(F)F)N(C)C2)[C@H]3C(C)C)cc1 (relative stereo)	< 0.1 µM	> 1 µM		
CCS(=O)(=O)c1ccc(CC(=O)Nc2nc3c(s2)CN(C[C@H]2CC[C@H](C(F)(F)F)N(C)C2)[C@H]3C(C)C)cc1 [I-A22]			< 0.1 µM	< 0.1 µM
CCS(=O)(=O)c1ccc(CC(=O)Nc2nc3c(s2)CN(Cc2ccc(C(F)(F)F)nc2C)[C@H]3C(C)C)cc1 [I-A21]			< 0.1 µM	< 0.1 µM
CC(C)[C@H]1c2nc(NC(=O)Cc3ccc(S(C)(=O)=O)cc3)sc2CN1[C@H](C)c1ccc(C(F)(F)F)nc1 (single isomer, unassigned)	< 0.1 µM	< 0.1 µM		
CCS(=O)(=O)c1ccc(CC(=O)Nc2nc3c(s2)CN(Cc2cccc(C4CC4)c2)[C@@H]3C(C)C)cc1	< 0.1 µM	> 1 µM		
CCS(=O)(=O)c1ccc(CC(=O)Nc2nc3c(s2)CN([C@H](C)c2ccc(Br)cc2F)[C@H]3C(C)C)cc1 [I-A24]			< 0.1 µM	< 0.1 µM
CCS(=O)(=O)c1ccc(CC(=O)Nc2nc3c(s2)CN(Cc2ccc(C4CC4)cc2)[C@H]3C(C)C)cc1 [I-A59]			< 0.1 µM	< 0.1 µM
CCS(=O)(=O)c1ccc(CC(=O)Nc2nc3c(s2)CN(Cc2ccc(C(F)(F)F)c(F)c2)[C@@H]3C(C)C)cc1	< 0.1 µM	0.1 to 1 µM		
CCS(=O)(=O)c1ccc(CC(=O)Nc2nc3c(s2)CN(CC2CCS(=O)(=O)CC2)[C@H]3C(C)C)cc1	< 0.1 µM	> 1 µM		
CC[C@H](C)C1c2nc(C(=O)NCc3ccc(S(C)(=O)=O)cc3)sc2CN1Cc1ccc(OC(F)F)cc1 (stereo partly shown)	< 0.1 µM	0.1 to 1 µM		

Compound	Ki ([1]; Table 9)	IC50 [2, 3]	Ki ([1]; Table 8)	IC50 [2, 4]
CCS(=O)(=O)c1ccc(CNC(=O)c2nc3c(s2)CN(Cc2ccc(-c4nnn(C)n4)cc2)[C@H]3C(C)C)cc1 [I-J3]			< 0.1 µM	< 0.1 µM
CC[C@H]1c2nc(NC(=O)Cc3ccc(S(=O)(=O)CC)cc3)sc2CN1Cc1ncc(Cl)cn1	0.1 to 1 µM	< 0.1 µM		
CC[C@@H]1c2nc(NC(=O)Cc3ccc(S(=O)(=O)CC)cc3)sc2CN1Cc1ccc2c(c1)OCO2	< 0.1 µM	> 1 µM		
CCS(=O)(=O)c1ccc(CC(=O)Nc2nc3c(s2)CN(C[C@H]2CC[C@@H](C(=O)O)CC2)[C@H]3C(C)C)cc1	0.1 to 1 µM	> 1 µM		
CC[C@@H](C)[C@@H]1c2nc(NC(=O)Cc3ccc(S(C)(=O)=O)cc3)sc2CN1Cc1ccc(OC(F)(F)F)cc1	0.1 to 1 µM	0.1 to 1 µM		
CCS(=O)(=O)c1ccc(CC(=O)Nc2nc3c(s2)CN(Cc2ccc(C#N)cc2F)[C@H]3C(C)C)cc1 [I-A13]			< 0.1 µM	< 0.1 µM
CCS(=O)(=O)c1ccc(CC(=O)Nc2nc3c(s2)CN([C@H](C)c2ccc(C(F)(F)F)cc2F)[C@H]3C(C)C)cc1 [I-A36]			< 0.1 µM	< 0.1 µM
CCS(=O)(=O)c1ccc(CC(=O)Nc2nc3c(s2)CN(Cc2ccc4c(c2)CCO4)[C@H]3C(C)C)cc1	< 0.1 µM	> 1 µM		
CCS(=O)(=O)c1ccc(CC(=O)Nc2nc3c(s2)CN(Cc2ccc(C(F)(F)F)nc2)C3C(C)C)nc1 (stereo not shown)	< 0.1 µM	< 0.1 µM		
CC(C)[C@H]1c2nc(NC(=O)Cc3ccc(S(C)(=O)=O)cc3)sc2CN1Cc1ccc(-c2nnn[nH]2)cc1	0.1 to 1 µM	> 1 µM		
CCS(=O)(=O)c1ccc(CC(=O)Nc2nc3c(s2)CN([C@H](C)Cc2ccc(Cl)cc2)[C@H]3C(C)C)cc1 (single isomer, unassigned)	< 0.1 µM	> 1 µM		
CCS(=O)(=O)c1ccc(CC(=O)Nc2nc3c(s2)CN(Cc2ccc(C(N)=O)cc2)[C@H]3C(C)C)cc1	< 0.1 µM	< 0.1 µM		
CCS(=O)(=O)c1ccc(CC(=O)Nc2nc3c(s2)CN(Cc2ccc(Cl)cn2)[C@H]3C(C)C)cc1 [I-A11]			< 0.1 µM	< 0.1 µM
CCS(=O)(=O)c1ccc(CC(=O)Nc2nc3c(s2)CN(Cc2ccc(C#N)cc2C(F)(F)F)[C@H]3C(C)C)cc1	< 0.1 µM	> 1 µM		
CCS(=O)(=O)c1ccc(CC(=O)Nc2nc3c(s2)C(C)N(Cc2ccc(Cl)cc2)[C@H]3C(C)C)cc1 (stereo partly shown)	< 0.1 µM	< 0.1 µM		
CC(C)[C@H]1c2nc(C(=O)NCc3ccc(S(C)(=O)=O)cc3)sc2CN1Cc1ccc(Cl)cn1 [I-K1, (S)-5-((5-chloropyridin-2-yl)methyl)-4-isopropyl-N-(4-(methylsulfonyl)benzyl)-5,6-dihydro-4H-pyrrolo[3,4-d]thiazole-2-carboxamide]			< 0.1 µM	0.1 to 1 µM
CCS(=O)(=O)c1ccc(CC(=O)Nc2nc3c(s2)CN([C@@H](C)c2ccc(C#N)cn2)[C@H]3C(C)C)cc1 (single isomer, unassigned)	< 0.1 µM	< 0.1 µM		
CCS(=O)(=O)c1ccc(CC(=O)Nc2nc3c(s2)CN(Cc2ccc(CO)cc2)[C@H]3C(C)C)cc1	< 0.1 µM	0.1 to 1 µM		
CC1(C)c2nc(NC(=O)Cc3ccc(S(C)(=O)=O)cc3)sc2CN1c1nccc(C(F)(F)F)n1	0.1 to 1 µM	> 1 µM		
CCS(=O)(=O)c1ccc(CC(=O)Nc2nc3c(s2)CN(Cc2ccc(-c4nnnn4C)cc2)[C@H]3C(C)C)cc1 [I-A40]			< 0.1 µM	< 0.1 µM
CCS(=O)(=O)c1ccc(CC(=O)Nc2nc3c(s2)CN(Cc2ccc(N)nc2)[C@H]3C(C)C)cc1	< 0.1 µM	> 1 µM		
CC(C)[C@H]1c2nc(NC(=O)Cc3ccc(S(C)(=O)=O)cc3)sc2CN1Cc1ccc(C#N)c(Cl)c1 [I-B8]			< 0.1 µM	< 0.1 µM
CCS(=O)(=O)c1ccc(CC(=O)Nc2nc3c(s2)CN(Cc2cc(C(F)(F)F)cc(C(F)(F)F)c2)[C@@H]3C(C)C)cc1	< 0.1 µM	> 1 µM		
